# Assay results reported in patent EP0738149B1 (priority 1994, dated 1995).
# Experiments:
# [1] = test system: mechanically dissociated neonatal rat cerebellum; assay: Enhancement of cell survival in cultures of neonatal rat cerebellum (no NMDA); assay type: cell-based; details: 24 hours after addition, percentage of the number of control cells on the fourth day
# Experimental: The cerebellum was aseptically dissociated from 6 or 7-day old rat pups and placed in a 15ml sterile plastic conical tube containing 3ml of Dulbecco's modified Eagle's medium (DMEM) with a high glucose concentration ([…]) and 2mM (v/v) L-glutamine and an antibiotic antimitotic mixture. The cerebella were then dissociated after 20-25 passages through a sterile 13 gauge, 10cm long stainless steel needle attached to a 5ml syringe with an inserted 45 micrometer pore nylon sieve. The dissociated cells were centrifuged at 200g for 5 minutes. […] Cell viability was determined by the tryptan blue exclusion test.
# Cells were plated at a density of 200/mm^2 on poly-L-lysine coated surfaces. Poly-L-lysine coated glass coverslips were prepared at least one hour in advance of plating by immersing sterile coverslips in sterile distilled water solution containing 15 microgram/ml poly-L-lysine, and washing in sterile water just prior to use. […] After three days in culture, the media was replaced with media containing the desired test compound. Each test compound was tested in duplicate. Toxic-dose response was determined for each compound.
# Cell cultures were grown as described above but in the absence of NMDA and after 3 days a dose of test compound was added. Cell survival was monitored as described above.
# mice = assay: Maximal electroshock (MES) model in mice, i.p.;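 also: Electroshock-induced convulsion model serving to demonstrate antiepileptic efficacy against generalized and partial seizures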; assay type: in vivo; details: Mus musculus, ip, Table 15
# MAO-A = target: T1, MAO-A (Rattus norvegicus, UniProt P21396); details: ex vivo brain
# T1 sequence (P21396 1-526): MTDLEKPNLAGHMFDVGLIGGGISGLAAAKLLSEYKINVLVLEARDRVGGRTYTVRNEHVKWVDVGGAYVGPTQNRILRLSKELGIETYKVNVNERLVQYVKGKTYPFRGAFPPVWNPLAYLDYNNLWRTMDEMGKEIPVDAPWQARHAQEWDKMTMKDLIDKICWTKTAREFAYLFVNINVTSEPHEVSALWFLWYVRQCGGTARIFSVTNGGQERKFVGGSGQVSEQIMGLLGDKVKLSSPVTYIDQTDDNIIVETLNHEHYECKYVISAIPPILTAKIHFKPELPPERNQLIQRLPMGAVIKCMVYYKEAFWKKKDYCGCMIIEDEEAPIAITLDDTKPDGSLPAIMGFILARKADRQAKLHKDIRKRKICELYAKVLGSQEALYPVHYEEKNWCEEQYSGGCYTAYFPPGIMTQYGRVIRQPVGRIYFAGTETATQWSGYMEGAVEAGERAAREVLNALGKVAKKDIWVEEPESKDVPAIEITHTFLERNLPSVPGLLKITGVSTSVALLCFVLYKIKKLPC
# Text: The brains of some rats from each experimental group in Exp. 1 (chronic treatment of 80 days) and Exp. 2 (acute treatment of 14 days) were ex vivo analyzed for MAO-A and MAO-B activity.
# rats = assay: Closed head injury in rats: brain oedema (water content), Experiments 4A-4E; assay type: in vivo; details: Exp 4A; relative to normal brain water content of 78.5 %
# Experimental: After the second evaluation of motor function, the animals were sacrificed and the brains were removed. A piece of tissue was weighed to yield a wet weight(WW), then dried in an oven for 24 hours at 95C and re-weighed to yield a dry weight(DW). Percentage water content in the tissue was calculated as (WW-DW)x100/WW.
# hypoxic rat = assay: α-MpT-induced hypokinesia in hypoxic rat (locomotor activity), Experiments 1A-1C; assay type: in vivo; details: Mean ± SEM
# Experimental: Experiment 1A. Wistar male rats, 15-19 month-old, were exposed to a single hypoxic episode which is assumed to decrease the level of dopamine in the brain. […] The drugs were administered by gavage, using a special syringe equipped with rounded tip that could be directed into the stomach. The dose was contained in 0.3-0.5 mL of distilled water. The rats were pretreated for 70-80 days with daily doses of the test drugs and received intra-peritoneal (i.p.) α-MpT (α-methyl-p-tyrosine) at a dose of 100mg/kg in 0.3-0.5 mL saline. Controls received saline. α-MpT is assumed to inhibit the formation of L-Dopa from tyrosine and, consequently the formation of dopamine itself. Lack of central dopamine is expressed as hypokinesia. Following the injection of α-MpT, motor activity was recorded for the duration of 10 hours. Locomotion scores were taken in seven fully-computerized cages (26x25cm) having a grid of infra-red beams at 4 cm-intervals. Crossing of a beam initiated an electric signal which was fed into a computer. The number of crossings over a given period provided a measure of locomotion. The records gave two data categories: (a) "small movements" originating in stationary activities such as grooming and scratching and (b) "big movements" originating in ambulation and recorded as the simultaneous crossing of more than two beams."Total movements" include both categories. Counts of motor activity in the presence of α-MpT were related as percent with respect to counts in its absence in the corresponding control group (unlesioned or hypoxia-lesioned). Motor activity counts of drug-treated rats were related to the hypoxia saline-treated as 100%. All behavioral tests were performed 90-120 min. after administration of the last dose of the test compound.
# Experiment 1B. […] The drugs were given i.p. • (3) Duration of the treatment: 21 days. • (4) Dose of α-MpT: 70 mg/Kg.
# [2] = Exp 1A, 0.5mg/kg/Day gavage 70-80 days, α-MpT 100mg/kg i.p., Hour 1
# [3] = Exp 1A, 0.5mg/kg/Day gavage 70-80 days, α-MpT 100mg/kg i.p., Hour 2
# [4] = Exp 1A, 0.5mg/kg/Day gavage 70-80 days, α-MpT 100mg/kg i.p., Hour 3
# [5] = Exp 1A, 0.5mg/kg/Day gavage 70-80 days, α-MpT 100mg/kg i.p., Hour 4
# [6] = Exp 1A, 0.5mg/kg/Day gavage 70-80 days, α-MpT 100mg/kg i.p., Hour 5
# [7] = Exp 1A, 0.5mg/kg/Day gavage 70-80 days, α-MpT 100mg/kg i.p., Hour 7
# [8] = Exp 1A, 0.5mg/kg/Day gavage 70-80 days, α-MpT 100mg/kg i.p., Hour 8
# [9] = Exp 1A, 0.5mg/kg/Day gavage 70-80 days, α-MpT 100mg/kg i.p., Hour 9
# [10] = Exp 1A, 0.5mg/kg/Day gavage 70-80 days, α-MpT 100mg/kg i.p., Hour 10
# [11] = Exp 1B, 0.3 mg/Kg daily i.p. 21 days, α-MpT 70 mg/Kg, Hour 1
# [12] = Exp 1B, 0.3 mg/Kg daily i.p. 21 days, α-MpT 70 mg/Kg, Hour 2
# [13] = Exp 1B, 0.3 mg/Kg daily i.p. 21 days, α-MpT 70 mg/Kg, Hour 3
# [14] = Exp 1B, 0.3 mg/Kg daily i.p. 21 days, α-MpT 70 mg/Kg, Hour 4
# [15] = Exp 1B, 0.3 mg/Kg daily i.p. 21 days, α-MpT 70 mg/Kg, Hour 5
# [16] = Exp 1B, 0.3 mg/Kg daily i.p. 21 days, α-MpT 70 mg/Kg, Hour 6
# [17] = Exp 1B, 0.3 mg/Kg daily i.p. 21 days, α-MpT 70 mg/Kg, Hour 7
# [18] = Exp 1B, 0.3 mg/Kg daily i.p. 21 days, α-MpT 70 mg/Kg, Hour 8
# [19] = Exp 1B, 0.3 mg/Kg daily i.p. 21 days, α-MpT 70 mg/Kg, Hour 9
# [20] = Exp 1B, 0.3 mg/Kg daily i.p. 21 days, α-MpT 70 mg/Kg, Hour 10
compound,measurement,setting,value
"CC(=O)N[C@@H]1CCc2ccccc21 [Example 18, (R)-N-Acetyl-1-aminoindan]",% ENHANCED SURVIVAL,[1]; 0.01 µM,145%
same,% ENHANCED SURVIVAL,[1]; 0.10 µM,130%
same,% ENHANCED SURVIVAL,[1]; 1.00 µM,126%
same,ED50,mice,31 mg/kg
"N[C@@H]1CCc2ccccc21 [R-AI, (R)-1-aminoindan]",% inhibition of MAO A acute treatment,MAO-A; acute treatment of 14 days,13%
same,% inhibition of MAO A chronic treatment,MAO-A; chronic treatment of 80 days,6%
same,reduction in trauma-induced oedema,rats,50%
C#CCN(C)[C@H](C)Cc1ccccc1 [deprenyl],"Locomotor activity after α-MpT treatment, recorded as big movements",hypoxic rat; [2],61 ± 15%
same,"Locomotor activity after α-MpT treatment, recorded as total movements",hypoxic rat; [2],88 ± 23%
same,"Locomotor activity after α-MpT treatment, recorded as big movements",hypoxic rat; [3],103 ± 22%
same,"Locomotor activity after α-MpT treatment, recorded as total movements",hypoxic rat; [3],131 ± 30%
same,"Locomotor activity after α-MpT treatment, recorded as big movements",hypoxic rat; [4],184 ± 39%
same,"Locomotor activity after α-MpT treatment, recorded as total movements",hypoxic rat; [4],141 ± 26%
same,"Locomotor activity after α-MpT treatment, recorded as big movements",hypoxic rat; [5],85 ± 34%
same,"Locomotor activity after α-MpT treatment, recorded as total movements",hypoxic rat; [5],191 ± 45%
same,"Locomotor activity after α-MpT treatment, recorded as big movements",hypoxic rat; [6],171 ± 61%
same,"Locomotor activity after α-MpT treatment, recorded as total movements",hypoxic rat; [6],229 ± 40%
same,"Locomotor activity after α-MpT treatment, recorded as big movements","hypoxic rat; Exp 1A, 0.5mg/kg/Day gavage 70-80 days, α-MpT 100mg/kg i.p., Hour 6",65 ± 17%
same,"Locomotor activity after α-MpT treatment, recorded as big movements",hypoxic rat; [7],96 ± 29%
same,"Locomotor activity after α-MpT treatment, recorded as total movements",hypoxic rat; [7],204 ± 7%
same,"Locomotor activity after α-MpT treatment, recorded as big movements",hypoxic rat; [8],91 ± 40%
same,"Locomotor activity after α-MpT treatment, recorded as total movements",hypoxic rat; [8],131 ± 23%
same,"Locomotor activity after α-MpT treatment, recorded as big movements",hypoxic rat; [9],84 ± 23%
same,"Locomotor activity after α-MpT treatment, recorded as total movements",hypoxic rat; [9],137 ± 21%
same,"Locomotor activity after α-MpT treatment, recorded as big movements",hypoxic rat; [10],29 ± 10%
same,"Locomotor activity after α-MpT treatment, recorded as total movements",hypoxic rat; [10],116 ± 22%
same,"Locomotor activity after α-MpT treatment, recorded as big movements",hypoxic rat; [11],70 ± 10%
same,"Locomotor activity after α-MpT treatment, recorded as total movements",hypoxic rat; [11],68 ± 9%
same,"Locomotor activity after α-MpT treatment, recorded as big movements",hypoxic rat; [12],91 ± 19%
same,"Locomotor activity after α-MpT treatment, recorded as total movements",hypoxic rat; [12],95 ± 11%
same,"Locomotor activity after α-MpT treatment, recorded as big movements",hypoxic rat; [13],85 ± 19%
same,"Locomotor activity after α-MpT treatment, recorded as total movements",hypoxic rat; [13],126 ± 22%
same,"Locomotor activity after α-MpT treatment, recorded as big movements",hypoxic rat; [14],88 ± 23%
same,"Locomotor activity after α-MpT treatment, recorded as total movements",hypoxic rat; [14],118 ± 20%
same,"Locomotor activity after α-MpT treatment, recorded as big movements",hypoxic rat; [15],87 ± 11%
same,"Locomotor activity after α-MpT treatment, recorded as total movements",hypoxic rat; [15],83 ± 24%
same,"Locomotor activity after α-MpT treatment, recorded as big movements",hypoxic rat; [16],67 ± 8%
same,"Locomotor activity after α-MpT treatment, recorded as total movements",hypoxic rat; [16],78 ± 9%
same,"Locomotor activity after α-MpT treatment, recorded as big movements",hypoxic rat; [17],62 ± 9%
same,"Locomotor activity after α-MpT treatment, recorded as total movements",hypoxic rat; [17],56 ± 7%
same,"Locomotor activity after α-MpT treatment, recorded as big movements",hypoxic rat; [18],70 ± 9%
same,"Locomotor activity after α-MpT treatment, recorded as total movements",hypoxic rat; [18],85 ± 13%
same,"Locomotor activity after α-MpT treatment, recorded as big movements",hypoxic rat; [19],132 ± 24%
same,"Locomotor activity after α-MpT treatment, recorded as total movements",hypoxic rat; [19],111 ± 12%
same,"Locomotor activity after α-MpT treatment, recorded as big movements",hypoxic rat; [20],54 ± 13%
same,"Locomotor activity after α-MpT treatment, recorded as total movements",hypoxic rat; [20],61 ± 12%
